Test results: patent US20220202859A1, “CANCER TREATMENT USING CD38 INHIBITOR AND/OR LENALIDOMIDE AND T-CELLS EXPRESSING A CHIMERIC ANTIGEN RECEPTOR” (CRISPR THERAPEUTICS AG, priority 2020, published 2022)

Assays:
NK cells [1] = assay: Daratumumab in PBMC culture: NK cell frequency and numbers; assay type: cell-based, human
Experimental: Based on the expression levels of CD38 on NK and T cells, the effect of an anti-CD38 antibody, daratumumab (TAB-236, Creative Biolabs), on such cells was assessed. […] The effect of 10% complement on the cell cultures was also tested. Untreated cells and cells treated with 0.01, 0.1 or 1 μg/mL isotype control mAb (human IgG1k) (cat #403501, BioLegend) were used as controls. After 96 hours of culture, NK and T cell frequency and numbers were measured.

T cells = assay: Daratumumab in PBMC culture: T cell frequency and numbers; assay type: cell-based, human; conditions: 0.01, 0.1 or 1 μg/mL, 96 hours
Experimental: Based on the expression levels of CD38 on NK and T cells, the effect of an anti-CD38 antibody, daratumumab (TAB-236, Creative Biolabs), on such cells was assessed. PBMCs from a healthy donor were cultured for 96 hours in media containing 0.01, 0.1, or 1 μg/mL of daratumumab. The effect of 10% complement on the cell cultures was also tested. Untreated cells and cells treated with 0.01, 0.1 or 1 μg/mL isotype control mAb (human IgG1k) (cat #403501, BioLegend) were used as controls. After 96 hours of culture, NK and T cell frequency and numbers were measured.

anti-BCMA CAR T cells [2] = assay: Daratumumab on anti-BCMA CAR T cell numbers, frequency and activation; assay type: cell-based, human
Experimental: To assess whether daratumumab treatment affects CAR T cells with a disrupted β2M gene, anti-BCMA CAR T cells generated in Example 1 were treated with daratumumab with or without 10% complement. After a 72 hour culture period, anti-BCMA CAR T cell numbers and frequency were measured in a flow cytometry assay as described in Example 3 (FIGS. 12A-12B).
To determine if higher concentrations of daratumumab (10 μg/mL) activates CAR T cells and causes subsequent proliferation or activation-induced cell death, anti-BCMA CAR T cells deficient in B2M were cultured with daratumumab at concentrations of 0.1, 1 or 10 μg/mL for 24 hours. Untreated cells or anti-BCMA CAR T cells deficient in B2M treated with IgG1k isotype control mAb were used as controls.

NK cells [3] = assay: NK cell-mediated CAR T cell lysis after daratumumab pre-treatment of NK cells (DAPI cell-kill assay); assay type: cell-based, human
Experimental: To determine if daratumumab blunts NK-cell mediated CAR T cell lysis, anti-BCMA CAR T cells were co-cultured with purified NK cells that were pre-treated for 60 hours with either daratumumab or isotype control mAb at concentrations of 0.01, 0.1, or 1 μg/mL (FIG. 13A). At the end of the 60 hour pre-treatment period, 50,000 efluor-labelled anti-BCMA CAR T cells were added to the plate containing 150,000 NK cells and Dara/isotype control, and incubated for an additional 24 hours. At the end of the 24-hour co-culture period, anti-BCMA CAR T cell lysis was measured in a cell-kill assay with DAPI.
Specifically, the anti-BCMA CAR T cells were labeled with 5 μM efluor670 (Cat #65-0840-90; ThermoFisher Scientific), washed and incubated in co-cultures with the NK cells at a 3:1 (NK:T) ratio. The co-culture was incubated 24 hr. After incubation, wells were washed and media was replaced with 150 μL of 1× FACS buffer containing a 1:500 dilution of 5 mg/mL DAPI (Molecular Probes) and 12.5 μL of CountBright beads (C36950; ThermoFisher Scientific).
To determine if 10 μg/mL daratumumab blunts NK-cell mediated CAR T cell lysis, anti-BCMA CAR T cells deficient in B2M were co-cultured with purified NK cells that were pre-treated for 60 hours with either daratumumab or isotype control mAb at concentrations of 0.1, 1 or 10 μg/mL. Briefly, NK cells were plated at 50,000 or 150,000 cells per well and treated with daratumumab or the isotype control at concentrations of 0, 0.1, 1 and 10 μg/mL. After 60 hours of treatment of NK cells with daratumumab, the anti-BCMA CAR T cells were labeled with 5 μM efluor670 (Cat #65-0840-90; ThermoFisher Scientific), washed and seeded at 50,000 cells per well in co-cultures with the daratumumab-treated NK cells to make 1:1 or 3:1 (NK:T) ratio. The co-culture was incubated for further 24 hr. […] The cells were analyzed for cell viability by flow cytometry (i.e., viable cells being negative for DAPI staining) Pre-treatment with daratumumab protected anti-BCMA CAR T cell from NK induced cell lysis in a dose-dependent manner (FIGS. 14B-14C). […]

NK cells [4] = assay: High daratumumab concentrations in NK/CAR T co-culture: NK cell numbers; assay type: cell-based, human; conditions: 72 hours
Experimental: (§1) Daratumumab is prescribed in the clinic at a dose of 16 mg/kg (225 μg/mL equivalent). To determine the effect of daratumumab at high concentrations on NK and CAR T cells, anti-BCMA CAR T cells deficient in B2M were co-cultured with purified NK cells that were pre-treated for 60 hours with either human IgGl^-k or daratumumab, each at concentrations of 0.01, 0.1, 1, 10, 100 or 300 μg/mL using methods as described in the previous examples. Flow cytometry was used to assess NK and CAR T cells numbers 72 hours after co-culturing with pre-treated NK cells using methods as described in the previous examples.

anti-BCMA CAR T cells [5] = assay: High daratumumab concentrations in NK/CAR T co-culture: CAR T cell numbers; assay type: cell-based, human; conditions: up to 300 μg/mL; 72 hours
Experimental: as §1

MM.1S tumors = assay: Daratumumab plus anti-BCMA CAR-T cells in subcutaneous MM.1S xenograft model; assay type: in vivo, NOG mice; conditions: high dose 2.4×10^6 CAR+ T cells iv day 0; daratumumab 15 mg/kg IP twice weekly
Experimental: The effect of combining daratumumab with anti-BCMA CAR-T cell treatment was tested in a subcutaneous MM.1S xenograft model in immunocompromised NOG mice (NOD.Cg-Prkdc^scidIl2rg^tm1Sug/JicTac). In brief, 5 to 8-week old female NOG mice were individually housed in ventilated microisolator cages and maintained under pathogen-free conditions. The animals each received a subcutaneous inoculation in the right flank of 5×10^6 MM.1S cells in 50% Matrigel. When the mean tumor volume reached 150 mm^3 (approximately 125 to 175 mm^3), the mice were randomized into groups with 5 mice per group. Tested groups included an untreated arm, daratumumab only treatment, anti-BCMA CAR-T cell only treatment (low dose or high dose), and anti-BCMA CAR-T cell (low dose or high dose) in combination with daratumumab. Anti-BCMA CAR-T cells were dosed by intravenous injection of 0.8×10^6 (low dose) or 2.4×10^6 (high dose) CAR^+ T cells at day 0. Daratumumab was dosed IP at 15 mg/kg, twice weekly, starting 2 days prior to anti-BCMA CAR-T cell dosing.
Tumor volume and body weights were measured twice weekly and individual mice were euthanized when their tumor volume reached ≥2000 mm^3.

multiple myeloma = conditions: third-line or fourth-line therapy; approximate; cited from earlier work
[6] = human, in vivo; cited from earlier work

## daratumumab: fully human IgGκ monoclonal antibody that targets CD38
NK cells [1]; 1 μg/mL, 96 hours
  reduction of NK cell numbers: approximately 75%
NK cells [1]; 0.01, 0.1 or 1 μg/mL, 96 hours
  NK cell frequency and numbers: dose-dependent decrease of NK cell frequency and numbers
NK cells [1]; PBMCs from a different donor, 72 hours
  reduction of NK cell numbers: ~57%
NK cells [1]; addition of 10% complement
  complement dependence of NK cell reduction: not complement dependent
T cells
  T cell numbers or frequency: did not affect T cell numbers or frequency
anti-BCMA CAR T cells [2]
  activation of CAR T cells: did not induce activation of CAR T cells
anti-BCMA CAR T cells [2]; 10 μg/mL, 24 hours
  B2M deficient CAR T cell numbers: did not significantly reduce B2M deficient CAR T cells numbers
anti-BCMA CAR T cells [2]; 72 hour culture, with or without 10% complement
  anti-BCMA CAR T cell numbers or frequency: did not affect anti-BCMA CAR T cells numbers or frequency
NK cells [3]; 1:1 NK:T ratio, 0.1 μg/mL, 60 hours pre-treatment
  protective effect against anti-BCMA CAR T cell lysis: 91%
NK cells [3]; 3:1 NK:CAR T ratio, 1 μg/mL, 60 hours pre-treatment
  protection from NK cell lysis: 85%
NK cells [3]; NK cells pre-treated 60 hours at 0.01, 0.1 or 1 μg/mL, 3:1 NK:T, 24 hr co-culture
  anti-BCMA CAR T cell lysis by pre-treated NK cells: reduced anti-BCMA CAR T cell lysis in a dose-dependent manner
NK cells [4]; 1 μg/mL
  decrease in NK cells: 29%
NK cells [4]; 300 μg/mL
  further decrease in NK cells: 38%
anti-BCMA CAR T cells [5]
  BCMA CAR T cell numbers: unaffected by the high daratumumab concentrations
MM.1S tumors
  mean tumor volume at day 26: 1475 mm^3
Multiple myeloma
  historical ORR: ~30%
[6]
  hepatitis B reactivation: 1%
  herpes zoster reactivation: 2%
